US10722464B2, “Compositions for delivery of drug combinations” (priority 2001, dated 2020)

Assay: in vivo
Conditions: SCID/rag2, mouse, plasma, iv, 10 mg/kg

SMILES: CCC1=C[C@@H]2CN(C1)Cc1c([nH]c3ccccc13)[C@@](C(=O)OC)(c1cc3c(cc1OC)N(C)[C@H]1[C@@](O)(C(=O)OC)[C@H](OC(C)=O)[C@]4(CC)C=CCN5CC[C@]31[C@@H]54)C2 [free vinorelbine, vinorelbine]
- AUC: 0.112 µg·h/mL
